{"source": "paper PMC8419995", "about": "“In vitro and in vivo efficacy of thiacloprid against Echinococcus multilocularis” (Parasites & Vectors, 2021)", "key": {"[1]": {"tested_on": "Human foreskin fibroblasts (HFF)", "experiment": "alamarBlue cytotoxicity assay, HFF", "assay_type": "cell-based", "settings": "Fibroblast, 120 h, 5 days", "experimental": "An alamarBlue assay was used to assess the toxicity of thiacloprid to confluent and pre-confluent mammalian cells in vitro [29]. Human foreskin fibroblasts (HFF, Procell) and rat hepatoma cells (RH, Procell) were seeded into 96-well cell culture plates in DMEM supplemented with 10% FBS and 1% penicillin–streptomycin at 37 °C and 5% CO2. For detecting the growth inhibitory effects of confluent cells, HFF and RH cells were seeded at 10,000 cells per well and 50,000 cells per well, respectively. After overnight culture, thiacloprid or PZQ was added and diluted in serial concentrations (0, 0.6, 1.2, 2.5, 5, 10, 20, 40, 80 and 160 μM). For detecting growth inhibitory effects on proliferating cells, cells were seeded at 1000 (HFF) and 5000 (RH) cells per well. Thiacloprid was added after 5 h of cell attachment. To measure the viability of the cells after treatment for 5 days, the alamarBlue assay was employed and viability calculated as described previously."}, "[2]": {"tested_on": "E. multilocularis protoscoleces", "experiment": "Protoscolex viability, 0.1% eosin exclusion test", "assay_type": "cell-based, Echinococcus multilocularis", "experimental": "Viable protoscoleces were cultured in Medium 199, supplemented with 1% penicillin–streptomycin, 50 μg/ml gentamicin and 4 mg/ml glucose according to a previously described method. […] PZQ was used as a positive control. The protoscoleces were cultured in an incubator at 37 °C and 5% CO2 for 7 days. Additionally, 0.1% eosin exclusion test was used to evaluate the viability of protoscoleces. To reduce the bias as much as possible, protoscolex viability was observed by two experimenters under double-blind conditions. Each experiment was conducted three times."}, "[3]": {"parameters": "method as in PMID 32229153", "settings": "mice; cited from earlier work"}, "[4]": {"tested_on": "E. multilocularis protoscoleces and germinal cells", "experiment": "Glucose consumption (2-deoxyglucose uptake)", "assay_type": "cell-based, Echinococcus multilocularis", "experimental": "Glucose consumption in E. multilocularis protoscoleces and germinal cells was detected using the Screen Quest Colorimetric Glucose Uptake Assay Kit (AAT Bioquest, Sunnyvale, CA, USA). The newly separated protoscoleces were washed twice with Krebs–ringer phosphate HEPES (KRPH) buffer and then resuspended in 1 ml glucose uptake buffer for 1 h. Each well contained about 200 protoscoleces. Isolated E. multilocularis germinal cells were resuspended with serum-free DMEM and cultured overnight in nitrogen at 37 °C. Germinal cells were then washed twice with KPRH buffer and resuspended in 90 μl glucose uptake buffer for 1 h. Subsequently, the protoscoleces and germinal cells were added with 10 μl thiacloprid (5 μM) for 1 h, and treated with 10 μl 2-deoxyglucose (2DG) for 1 h. The germinating cells treated with thiacloprid were labeled with mitochondria red fluorescent probe (Beyotime, Shanghai, China) and the percentage of living cells was measured by flow cytometry. The protoscoleces and germinal cells were washed twice with KRPH buffer and then lysed with 25 μl acidic lysis buffer in an Eppendorf tube (EP) for 30 min. A neutralizing buffer was added to each well and left at room temperature for 20 min to neutralize the lysate. […] Lastly, the mixture was transferred to a 96-well cell culture plate and the absorbance was measured at 570 nm using an Infinite M200 PRO reader (Tecan). […]"}}, "note": "Where two headings read alike, the source gives them in different places."}
{"smiles": "N#C/N=C1\\SCCN1Cc1ccc(Cl)nc1", "note": "[thiacloprid]", "values": [{"measurement": "IC50", "setting": "[1]; confluent cells, read-out: IC50 on confluent HFF", "value": "68.7 ± 9.71", "unit": "µM"}, {"measurement": "IC50", "setting": "[1]; pre-confluent cells, read-out: IC50 on pre-confluent HFF", "value": "64.8 ± 5.79", "unit": "µM"}, {"measurement": "Effect on protoscolex viability", "setting": "[2]; 1.2 μM", "value": "no significant effect"}, {"measurement": "Dead protoscoleces", "setting": "[2]; 5 μM for 4 days", "value": "47.33 ± 4.04", "unit": "%"}, {"measurement": "Dose that induced obvious hepatocellular hypertrophy and cytoplasm degeneration", "setting": "[3]", "value": "more than 108 mg/kg"}, {"measurement": "Uptake of 2-DG by protoscoleces and germinal cells", "setting": "[4]; 5 μM, 1 h", "value": "reduced uptake"}, {"measurement": "Viability of protoscoleces and germinal cells", "setting": "[4]; treatment for 1 h", "value": "not affected"}]}
